Test results reported in US20260209288A1, “PEPTIDES FOR REGULATING GLUCOSE” (Cooke Aquaculture Inc., priority 2019, published 2026).

What was measured:
FAO rat hepatocytes = assay: Hepatic glucose production experiments in FAO cells; assay type: cell-based
Experimental: Hepatic glucose production experiments were conducted as described by Chevrier et al, (2015). Briefly, FAO rat hepatocytes were grown and maintained in monolayer culture in Roswell Park Memorial Institute medium (RPMI) containing 10% FBS in an atmosphere of 5% CO2 at 37° C. Cells were plated at 4.10^6 cells/plate. […] […] Glucose production was measured in the medium by using the Amplex Red Glucose/Glucose Oxidase Assay kit (Invitrogen). Results shown are the mean response of at least 6 independent experiments realized in triplicate.

L6 skeletal muscle cells = assay: Glucose uptake experiments in L6 skeletal muscle cells (2-deoxy-[3H]glucose); assay type: cell-based
Experimental: Glucose uptake experiments were conducted as described by Roblet 2013. L6 skeletal muscle cells were grown in an a-minimum essential medium (a-MEM) containing 2% (v/v) fetal bovine serum (GBS) in an atmosphere of 5% CO2 at 37° C. [Tremblay 2001]. Cells were plated at 600,000 cells/plate in 24-well plates to obtain about 25,000 cells/mL. The cells were incubated 7 days, to reach their complete differentiation to myotubes (7 days post-plating). L6 myotubes were deprived of GBS for 3 h, with a a-MEM containing 0% of GBS. Then, the cells were incubated for 75 minutes, with 10 μl of EDUF fractions at a concentration of 1 μg/mL and 1 ng/ml. Finally, insulin was added (10 μl at 1.10-5M) for 45 min. Experiments were repeated 9 times, and each repetition was run in triplicate. After experimental treatments, cells were rinsed once with 37° C. HEPES-buffered solution (20 mM HEPES, pH 7.4, 140 mM NaCl, 5 mM KCl, 2.5 mM MgSO4, and 1 mM CaCl2)) and were subsequently incubated in HEPES-buffered solution containing 10 µM 2-deoxyglucose and 0.3 μCi/mL 2-deoxy-[3H] glucose for 8 minutes. Then, the cells were rinsed three times with 0.9% NaCl solution at 4° C. and then frozen. The next day, the cells were disrupted by adding 500 μl of a 50 mM NaOH solution. The radioactivity was determined by scintillation.

Substance | Bioactivity (FAO rat hepatocytes; Table 1, identified peptides, hepatic glucose production) | decrease in HGP (hepatic glucose production) (FAO rat hepatocytes; basal condition) [%] | decrease of the HGP (hepatic glucose production) (FAO rat hepatocytes; insulin condition: peptide incubated with insulin at 0.1 nm, compared to insulin at 0.1 nm) [%] | glucose uptake, dose-response effect (L6 skeletal muscle cells; IPVE at 1 ng/ml) | glucose uptake, dose-response effect (L6 skeletal muscle cells; IPVE at 10 ng/ml) | Bioactivity (L6 skeletal muscle cells; Table 1, identified peptides, glucose uptake) | nature of the glucose uptake response (L6 skeletal muscle cells; concentrations from 1 μg/mL to 10 μg/mL as printed) | glucose uptake, dose-response effect (L6 skeletal muscle cells; highest concentrations tested (>10 ng/ml)) | enhancement of the glucose uptake (L6 skeletal muscle cells; in the presence of insulin, compared to the insulin control (P=0.016)) [%] | glucose uptake, dose-response effect (L6 skeletal muscle cells; lowest concentrations tested (<100 μg/mL))
VAPEEHPTL | Decreases hepatic glucose production | 20 | 18 |  |  |  |  |  |  | 
IPVE: synthetic peptide of amino acid sequence IPVE, identified from salmon protein hydrolysate; increases glucose uptake |  |  |  | increase the bioactivity | increase the bioactivity | Increases glucose uptake | dose-dependent | no effect on the glucose uptake | 17 | no effect on the glucose uptake
